Reference: PMC7300657 (EMBO Molecular Medicine, 2020)
Where two headings read alike, the source gives them in different places.

Experiments:
BIKE = BIKE (Homo sapiens, UniProt Q9NSY1); assay: biochemical; format: binding
AAK1 = AAK1 (Homo sapiens, UniProt Q2M2I8); assay: biochemical
GAK = biological target: T1, GAK (Homo sapiens, UniProt O14976); assay: biochemical; format: binding
T1 sequence (O14976 1-1311): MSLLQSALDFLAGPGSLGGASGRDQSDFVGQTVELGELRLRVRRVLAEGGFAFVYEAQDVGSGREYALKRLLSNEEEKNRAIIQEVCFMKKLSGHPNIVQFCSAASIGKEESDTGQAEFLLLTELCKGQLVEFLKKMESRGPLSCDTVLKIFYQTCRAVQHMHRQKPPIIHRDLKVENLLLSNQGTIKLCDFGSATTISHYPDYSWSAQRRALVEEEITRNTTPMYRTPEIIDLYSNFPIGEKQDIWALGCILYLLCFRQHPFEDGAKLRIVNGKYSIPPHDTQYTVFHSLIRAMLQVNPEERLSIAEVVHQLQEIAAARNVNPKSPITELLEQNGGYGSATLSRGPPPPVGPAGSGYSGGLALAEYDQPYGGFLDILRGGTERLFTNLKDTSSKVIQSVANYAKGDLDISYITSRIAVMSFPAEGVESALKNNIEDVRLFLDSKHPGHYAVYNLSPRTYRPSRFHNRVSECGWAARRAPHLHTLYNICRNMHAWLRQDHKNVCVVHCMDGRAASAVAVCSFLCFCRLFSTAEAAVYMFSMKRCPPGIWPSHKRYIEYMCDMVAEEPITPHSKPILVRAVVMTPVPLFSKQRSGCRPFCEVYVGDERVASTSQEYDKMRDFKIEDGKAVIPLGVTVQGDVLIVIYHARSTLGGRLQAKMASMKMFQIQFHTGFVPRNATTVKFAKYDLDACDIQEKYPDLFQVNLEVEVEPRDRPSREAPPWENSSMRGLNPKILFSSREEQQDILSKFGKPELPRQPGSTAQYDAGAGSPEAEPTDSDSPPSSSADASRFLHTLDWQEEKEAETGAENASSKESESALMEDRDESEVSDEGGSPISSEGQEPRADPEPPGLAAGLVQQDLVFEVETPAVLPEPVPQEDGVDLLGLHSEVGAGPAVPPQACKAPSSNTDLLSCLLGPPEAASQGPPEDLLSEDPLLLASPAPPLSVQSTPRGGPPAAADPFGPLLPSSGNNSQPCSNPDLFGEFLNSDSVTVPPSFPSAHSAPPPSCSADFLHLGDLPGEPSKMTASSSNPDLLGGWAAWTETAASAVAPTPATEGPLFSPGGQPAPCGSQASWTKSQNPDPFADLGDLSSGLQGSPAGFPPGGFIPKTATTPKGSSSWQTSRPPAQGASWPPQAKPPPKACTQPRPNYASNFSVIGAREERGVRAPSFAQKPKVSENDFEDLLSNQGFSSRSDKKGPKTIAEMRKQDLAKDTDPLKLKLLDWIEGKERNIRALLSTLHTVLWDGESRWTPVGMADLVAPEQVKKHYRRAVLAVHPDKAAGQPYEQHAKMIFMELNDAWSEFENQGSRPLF

STK16 = STK16 (Homo sapiens, UniProt O75716); assay: biochemical; format: binding
Sequence of STK16 (O75716 whole entry): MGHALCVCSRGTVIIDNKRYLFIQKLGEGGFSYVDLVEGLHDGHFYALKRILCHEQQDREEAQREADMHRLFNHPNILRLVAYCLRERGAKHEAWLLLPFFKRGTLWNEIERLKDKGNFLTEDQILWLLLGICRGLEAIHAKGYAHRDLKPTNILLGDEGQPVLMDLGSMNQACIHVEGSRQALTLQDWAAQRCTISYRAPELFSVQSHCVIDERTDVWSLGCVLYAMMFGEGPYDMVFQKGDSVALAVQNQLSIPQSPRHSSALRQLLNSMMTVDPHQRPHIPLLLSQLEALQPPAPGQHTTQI

[1] = design: method as in Genovese et al, 2019; conditions: RA patients, 10,127 patients-year of exposure, up to 6.9 years; ref Genovese et al, 2019; cited from earlier work
[2] = tested on: primary human liver spheroids; assay: Viability of primary human liver spheroids (intracellular ATP); format: cell-based; conditions: up to concentrations approximately eightfold higher than clinical AUC at 4 mg ([…]), n = 10
JAK2 = conditions: ref Fridman et al, 2010; cited from earlier work
[3] = cited from earlier work
SARS‐CoV‐2 [4] = format: cell-based; conditions: pretreatment 24 h with 400 and 800 nM, MOI 0.1, 48 h after infection, P < 0.05
SARS‐CoV‐2 [5] = tested on: SARS‐CoV‐2
[6] = tested on: cytokine‐induced JAK/STAT signaling; assay: Cytokine-stimulated pSTAT inhibition in human leukocyte subpopulations (flow cytometry); format: cell-based; conditions: human CD4+ T cells, CD8+ T cells, NK cells, monocytes; 1 h preincubation, 15 min cytokine stimulation
Method: Leukocyte preparation and experimental design were largely performed as previously described (McInnes et al, 2019). Whole blood samples from healthy donors (N = 6) were apheresed, and leukocyte‐enriched fractions were transferred to the company Primity Bio (Fremont, CA, USA). […] Cytokines were used at the following concentrations: IL‐2 (4 ng/ml), IL‐3 (12 ng/ml), IL‐4 (350 pg/ml), IL‐6 (1.5 ng/ml), IL‐10 (12 ng/ml), IL‐15 (850 pg/ml), IL‐21 (200 pg/ml), IFN‐γ (100 pg/ml), G‐CSF (5 ng/ml), and GM‐CSF (5 pg/ml). The choice of cytokine concentrations and incubation conditions was optimized in order to ensure consistent signaling in alternate cell types and pSTAT readouts. After stimulation, cells were fixed, permeabilized, and fluorescence‐barcoded, and multicolor flow cytometry was performed as previously described to quantify STAT phosphorylation in gated leukocyte subpopulations (McInnes et al, 2019). For a given case (stimulation, cell type, and pSTAT combination), the IC50 was determined if there was a consistent response to the stimulus as described in the statistical analysis section. The primary pSTAT observed for each stimulus is reported. […]
IC50 values were determined by analyzing the mean fluorescence intensity (MFI) of cytokine‐stimulated samples in the presence of the designated concentration of compound. […]

IL‐6 = conditions: patients with active RA, inadequate response to methotrexate, P < 0.05

Sequence of BIKE (Q9NSY1 whole entry): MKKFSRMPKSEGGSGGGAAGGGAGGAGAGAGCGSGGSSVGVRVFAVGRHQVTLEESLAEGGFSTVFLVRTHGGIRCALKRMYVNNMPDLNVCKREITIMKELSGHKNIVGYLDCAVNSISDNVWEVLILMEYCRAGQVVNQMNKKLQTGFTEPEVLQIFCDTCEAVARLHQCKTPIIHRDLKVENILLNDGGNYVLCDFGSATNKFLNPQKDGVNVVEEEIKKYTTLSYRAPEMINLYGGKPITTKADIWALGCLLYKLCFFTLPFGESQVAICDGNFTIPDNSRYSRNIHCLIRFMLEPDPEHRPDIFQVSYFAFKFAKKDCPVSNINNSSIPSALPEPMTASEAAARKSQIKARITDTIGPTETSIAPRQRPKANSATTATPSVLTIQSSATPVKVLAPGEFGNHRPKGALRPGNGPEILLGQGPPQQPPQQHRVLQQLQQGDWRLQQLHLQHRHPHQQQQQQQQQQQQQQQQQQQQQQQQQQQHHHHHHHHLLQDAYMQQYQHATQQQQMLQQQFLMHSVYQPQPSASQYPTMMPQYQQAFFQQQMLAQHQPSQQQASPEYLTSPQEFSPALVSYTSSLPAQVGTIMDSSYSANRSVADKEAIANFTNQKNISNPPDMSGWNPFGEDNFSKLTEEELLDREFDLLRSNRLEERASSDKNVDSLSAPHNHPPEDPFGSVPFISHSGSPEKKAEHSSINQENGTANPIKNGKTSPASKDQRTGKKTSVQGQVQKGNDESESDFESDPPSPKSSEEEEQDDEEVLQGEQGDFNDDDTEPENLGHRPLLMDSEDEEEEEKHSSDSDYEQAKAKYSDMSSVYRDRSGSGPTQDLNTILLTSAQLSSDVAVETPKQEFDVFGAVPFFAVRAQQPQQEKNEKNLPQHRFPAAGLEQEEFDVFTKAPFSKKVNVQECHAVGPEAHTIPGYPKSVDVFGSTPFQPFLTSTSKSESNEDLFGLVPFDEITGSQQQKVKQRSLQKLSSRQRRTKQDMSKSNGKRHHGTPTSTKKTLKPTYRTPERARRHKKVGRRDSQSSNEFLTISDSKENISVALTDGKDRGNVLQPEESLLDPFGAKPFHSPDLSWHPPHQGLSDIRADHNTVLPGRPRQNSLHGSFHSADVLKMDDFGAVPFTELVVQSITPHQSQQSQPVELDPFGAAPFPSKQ
Sequence of AAK1 (Q2M2I8 whole entry): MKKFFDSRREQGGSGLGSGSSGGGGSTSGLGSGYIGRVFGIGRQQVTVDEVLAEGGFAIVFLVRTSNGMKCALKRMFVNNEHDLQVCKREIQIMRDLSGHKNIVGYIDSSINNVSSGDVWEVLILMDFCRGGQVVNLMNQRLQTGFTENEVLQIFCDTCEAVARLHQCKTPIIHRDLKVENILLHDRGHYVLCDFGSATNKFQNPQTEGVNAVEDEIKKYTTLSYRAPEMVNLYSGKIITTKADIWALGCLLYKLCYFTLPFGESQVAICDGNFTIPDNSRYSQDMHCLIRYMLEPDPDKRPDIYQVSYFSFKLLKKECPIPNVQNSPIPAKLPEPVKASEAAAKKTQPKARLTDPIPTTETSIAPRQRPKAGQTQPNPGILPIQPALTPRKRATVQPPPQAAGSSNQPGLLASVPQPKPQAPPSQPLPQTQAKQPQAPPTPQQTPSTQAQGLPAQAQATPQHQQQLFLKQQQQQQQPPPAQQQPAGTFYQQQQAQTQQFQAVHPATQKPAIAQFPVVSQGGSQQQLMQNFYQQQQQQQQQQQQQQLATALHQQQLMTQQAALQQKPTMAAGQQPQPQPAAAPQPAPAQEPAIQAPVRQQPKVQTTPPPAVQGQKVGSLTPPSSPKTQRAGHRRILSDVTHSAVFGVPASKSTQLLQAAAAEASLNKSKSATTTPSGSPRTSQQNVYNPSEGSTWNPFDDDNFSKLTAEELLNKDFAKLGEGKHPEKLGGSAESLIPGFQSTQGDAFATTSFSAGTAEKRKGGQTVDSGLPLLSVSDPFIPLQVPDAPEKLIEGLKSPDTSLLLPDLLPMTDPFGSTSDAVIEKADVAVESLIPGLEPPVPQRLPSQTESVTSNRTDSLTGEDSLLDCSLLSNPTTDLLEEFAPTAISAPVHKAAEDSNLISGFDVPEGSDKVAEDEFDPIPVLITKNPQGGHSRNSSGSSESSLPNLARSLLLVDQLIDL

NC(=O)Nc1cc(-c2cccc(F)c2)sc1C(=O)N[C@H]1CCCNC1 [AZD7762]
Kd (BIKE): 13 nM
Kd (AAK1): 2.9 nM
Kd (GAK; read-out: GAK Kd): 1.4 nM
Kd (STK16): 1900 nM

CCS(=O)(=O)N1CC(CC#N)(n2cc(-c3ncnc4[nH]ccc34)cn2)C1 [Baricitinib]
incidence rate of serious infection [1]: 2.8 /100 patient‐years
liver cell injury / spheroid viability [2]: did not result in liver cell injury
binding affinity for JAK2 (JAK2): 5.7 nM
unbound fraction of free bioavailable drug, AUC ([3]; RA patient sera, baricitinib 2 mg, ref data on file): 326 nM
half-life ([3]; RA patients, ref Eli Lilly and Company, 2019): approximately 12 h
main clearance mechanism ([3]; ref Eli Lilly and Company, 2019): renal elimination
reduction of viral load (SARS‐CoV‐2 [4]): 30–40%
clinical outcome of case series (SARS‐CoV‐2 [5]; 4 mg (Patients A, C, D) or 2 mg (Patient B) once daily oral, 10-12 days): improved lung function, resolution of their illness, and reductions in viral load, plasma IL‐6, ferritin, and CRP levels
tolerability (SARS‐CoV‐2 [5]; four patients, 2 or 4 mg once daily oral, 10-12 days): well‐tolerated
liver aminotransferases (SARS‐CoV‐2 [5]; four patients, during baricitinib treatment): Transient increases
time to improvement of liver enzyme elevations (SARS‐CoV‐2 [5]; without interrupting baricitinib treatment): ≤ 72 h
signaling of cytokines implicated in COVID-19 infection (IL-2, IL-6, IL-10, IFN-γ, G-CSF), pSTAT inhibition [6]: inhibited signaling
change from baseline in plasma IL-6 at week 12 (IL‐6): significant reduction

CC[C@@H]1CN(C(=O)NCC(F)(F)F)C[C@@H]1c1cnc2cnc3[nH]ccc3n12 [Upadacitinib]
Kd (BIKE): 11000 nM
Kd (GAK): 2200 nM
Kd (STK16): 9300 nM
